{"source": "paper PMC12191924", "about": "“A new naphthalene-based fluorogenic substrate for cytochrome P450 4A11” (Biochemical Journal, 2025)", "target": "T1, pooled human liver microsome (HLM) preparations (Homo sapiens, UniProt Q02928)", "T1 sequence (Q02928 5-519)": "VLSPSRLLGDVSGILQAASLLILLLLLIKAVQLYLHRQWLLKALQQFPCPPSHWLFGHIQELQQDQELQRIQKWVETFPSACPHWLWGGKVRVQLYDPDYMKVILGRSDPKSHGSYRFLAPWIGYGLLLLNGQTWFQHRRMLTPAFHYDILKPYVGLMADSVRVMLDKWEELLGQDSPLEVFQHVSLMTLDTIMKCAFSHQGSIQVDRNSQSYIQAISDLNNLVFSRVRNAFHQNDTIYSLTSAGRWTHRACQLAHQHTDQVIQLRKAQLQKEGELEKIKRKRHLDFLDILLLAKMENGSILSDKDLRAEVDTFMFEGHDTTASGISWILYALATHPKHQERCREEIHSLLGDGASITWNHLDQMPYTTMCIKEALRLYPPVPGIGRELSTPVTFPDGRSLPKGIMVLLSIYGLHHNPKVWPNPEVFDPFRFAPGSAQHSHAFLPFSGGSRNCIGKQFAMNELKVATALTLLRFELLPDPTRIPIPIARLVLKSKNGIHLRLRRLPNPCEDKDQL", "experiment": "Inhibition of MONACRA demethylation in pooled HLM preparations", "type": "biochemical", "details": "all studied HLM samples; from inhibitory analysis with epalrestat", "excerpt": "To probe the role of CYP4A11 and CYP1A2 in MONACRA metabolism by HLM, we employed inhibitory analysis with the use of epalrestat as a specific inhibitor of CYP4A11 [22] and fluvoxamine as a CYP1A2 inhibitor [37]. We explored the effect of the inhibitors on the activity of recombinant CYP1A2 and CYP4A11, as well as the activity of six different preparations of HLM (preparation X347 was not available at the time of the study).\nFigure 12: Effect of epalrestat (A) and fluvoxamine (B) on 3-(6-methoxynaphthalen-2-yl)acrylic acid (MONACRA) demethylation by recombinant CYP1A2 (black) and CYP4A11 (red) and three pooled human liver microsome (HLM) preparations: X263 (green), DNJ (blue), and WGP (brown). Solid lines represent the approximation of the datasets by eqn 1 (in the instances of pure inhibition) or a combination of two hyperbolic equations (in the cases of activation or combined inhibition and activation). All experiments were carried out at 150 µM MONACRA concentration. The datasets shown in the graphs represent the averages of the results of four (fluvoxamine) or two (epalrestat) individual experiments.\nThis study used preparations of pooled HLMs from 50, 150, or 200 donors (mixed gender). The preparations CDN, DNJ, and WGP were INVITROCYP 150-Donor Human Liver Microsomes obtained from BioIVT Corporation (Westbury, NY). Lot EGW is INVITROCYP M-Class 50-Donor HLM procured from the same company. Lots 1,910,096 and 1,210,347 were XTreme 200 Mixed Gender HLM (200 donors) purchased from XenoTech LLC (Kansas City, KS), currently a part of BioIVT. Lot 2,110,263 corresponds to mixed gender HLM from 50 donors from the same company. These lots are referred to herein as X096, X347, and X263, respectively. The supplier of the HLM preparations used in our studies, BioIVT Corporation, has declared to adhere to the regulations of the Department of Health and Human Services for the protection of human subjects (45 CFR §46.116 and §46.117) and Good Clinical Practice, (ICH E6) in obtaining the samples of human tissues used for producing the preparations of human subcellular fractions available from these companies.\nInhibition of MONACRA metabolism by epalrestat and fluvoxamine was studied using the high-throughput assay described above. The substrate concentration was kept constant at 150 µM. Each column of the well plate comprised eight wells with different concentrations of inhibitor complemented with two wells with no inhibitor added (100% activity samples) and two wells with no inhibitor and no NADPH added (‘blank’ samples). […] The fractional inhibition at each inhibitor concentration was determined from the ratio of the reaction rate in the presence of an inhibitor to the rate observed at no inhibitor added. The resulting dependence of the fractional inhibition on the inhibitor concentration was fitted to a four-parameter logistic equation (Hill equation):\n(1) FI=v0−vi/v0=Amax[I]^N/IC50+[I]^N\nIn this equation, F I and vi are the fractional inhibition and the reaction velocity observed at inhibitor concentration [I], v0 is the reaction rate at no inhibitor added, and A max is the maximal amplitude of inhibition. IC 50 is the concentration of inhibitor at which the inhibition reaches 50% of its maximal amplitude (A max), and N is the Hill coefficient."}
{"smiles": "COc1ccc2cc(C=CC(=O)O)ccc2c1", "note": "[MONACRA, 3-(6-methoxynaphthalen-2-yl)acrylic acid]", "values": [{"measurement": "share of MONACRA demethylation for which CYP4A11 is responsible", "value": "> 93", "unit": "%"}]}
